Experimental data as given in patent publication EP3046573B1, “AMYLIN ANALOGUES” (Zealand Pharma A/S, priority 2013, dated 2015).
Numbered stars: 1 amine (or outer) side, 2 acyl side, 3 side chain; on linkers, the order of the positions; unused ones are H or OH. Bridge positions count the residues as written; N and C are the ends. Square brackets hold non-standard residues; d marks the D form. Peptide text beside a SMILES is read from it. * marks the point of attachment. C20 diacid = O=C(O)CCCCCCCCCCCCCCCCCCC(=O)*; γGlu = O=C(O)[C@H](CCC(=O)[*:2])N[*:1]; Hyp = O=C(O)[C@@H]1C[C@@H](O)CN1; NMeI = CC[C@H](C)[C@H](NC)C(=O)O; Sar = CNCC(=O)O

Assays:
[1] = target: T1, human amylin receptor 3 (hAMYR3) consisting of hCTR2 co-expressed with human Receptor Activity Modifying Protein 3 (hRAMP3) (Homo sapiens, UniProt O60896+P30988); assay: hAMYR3 assay: induction of cAMP (AlphaScreen cAMP Assay kit) in COS7 cells expressing hAMYR3; assay type: cell-based; conditions: cAMP induction in COS7 cells expressing hAMYR3; average of a minimum of 3 determinations; read-out: hAMY R3 EC50
T1 construct: expressed in transfected cells
T1 sequence (P30988 25-474): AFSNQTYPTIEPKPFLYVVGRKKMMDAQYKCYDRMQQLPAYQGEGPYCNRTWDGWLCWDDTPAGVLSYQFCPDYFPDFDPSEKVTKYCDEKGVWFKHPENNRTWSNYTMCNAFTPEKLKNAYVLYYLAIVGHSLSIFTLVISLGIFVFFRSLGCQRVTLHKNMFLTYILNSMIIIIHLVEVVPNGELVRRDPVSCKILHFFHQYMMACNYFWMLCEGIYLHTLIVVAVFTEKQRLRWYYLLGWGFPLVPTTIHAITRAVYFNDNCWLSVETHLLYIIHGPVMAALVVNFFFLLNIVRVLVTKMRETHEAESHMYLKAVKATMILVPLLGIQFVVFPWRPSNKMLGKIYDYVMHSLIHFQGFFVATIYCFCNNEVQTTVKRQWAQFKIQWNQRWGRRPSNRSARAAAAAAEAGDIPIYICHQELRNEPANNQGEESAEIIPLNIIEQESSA
T1 sequence (O60896 24-148 partner): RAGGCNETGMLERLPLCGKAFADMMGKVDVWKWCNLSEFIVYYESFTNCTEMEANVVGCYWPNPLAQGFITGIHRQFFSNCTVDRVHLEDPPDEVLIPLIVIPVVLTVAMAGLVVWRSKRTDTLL
How it was run: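 Stable COS7 clone co-expressing hCTR2 and hRAMP3, stimulated 15 min at 37° C with increasing peptide in Tyrode buffer pH 7.4 with 100 µM IBMX and 0.1% casein. cAMP measured by AlphaScreen after lysis; EC50 and % efficacy versus pramlintide from 4PL fit.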

[2] = target: T2, human calcitonin receptor (hCTR2) (Homo sapiens, UniProt P30988); assay: hCTR2 assay: induction of cAMP (AlphaScreen cAMP Assay kit) in COS7 cells expressing hCTR2; assay type: cell-based; conditions: cAMP induction in COS7 cells expressing hCTR2; average of a minimum of 3 determinations; read-out: hCTR2 EC50
T2 construct: expressed in transfected cells
T2 sequence (P30988 25-474): T1 sequence (P30988 25-474)
How it was run: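 COS7 stable hCTR2 clone (RAMP-free); peptide dose-response 15 min 37° C in Tyrode pH 7.4 + 100 µM IBMX + 0.1% casein; lysis 10 min RT; AlphaScreen cAMP; 4PL fit.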

[3] = Solubility assessment (turbidity absorbance at 325 nm); assay type: physicochemical; conditions: stock 2 mg/ml diluted 1:1, ambient temperature (typically 25°C), n=1
How it was run: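 Stock 2 mg/ml peptide, H2O/HCl pH 2.5; 1:1 into 100 mM buffers: acetate pH 4.0/5.0, His pH 6.0/7.0, phosphate pH 6.0/7.0/7.5. A280 + A325, ~25°C, n=1. Soluble ≥ 1 mg/ml if A325 ≤ 0.02.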

Row | EC50 [1] | EC50 [2] | Solubility, Acetate buffer pH 4 ([3]; 100 mM acetate buffer pH 4.0) | Solubility, Acetate buffer pH 5 ([3]; 100 mM acetate buffer pH 5.0) | Solubility, Histidine buffer pH 6 ([3]; 100 mM histidine buffer pH 6.0) | Solubility, Histidine buffer pH 7 ([3]; 100 mM histidine buffer pH 7.0) | Solubility, Phosphate buffer pH 6 ([3]; 100 mM phosphate buffer pH 6.0) | Solubility, Phosphate buffer pH 7 ([3]; 100 mM phosphate buffer pH 7.0) | Solubility, Phosphate buffer pH 7.5 ([3]; 100 mM phosphate buffer pH7.5) | Structure (SMILES)
1 | 0.24 nM | 0.17 nM | SS (SS indicates solubility ≥ 1mg/ml) | II (II indicates solubility ≤ 1 mg/ml) | II (II indicates solubility ≤ 1 mg/ml) | SS (SS indicates solubility ≥ 1mg/ml) | II (II indicates solubility ≤ 1 mg/ml) | SS (SS indicates solubility ≥ 1mg/ml) | SS (SS indicates solubility ≥ 1mg/ml) | CC[C@H](C)[C@@H](C(=O)N[C@@H](CC(C)C)C(=O)N[C@@H](CO)C(=O)N[C@@H](CO)C(=O)N[C@H](C(=O)N[C@@H](CCC(=O)O)C(=O)N[C@H](C(=O)NCC(=O)N[C@@H](CO)C(=O)N[C@@H](CCC(=O)O)C(=O)N[C@H](C(=O)N1CCC[C@H]1C(N)=O)[C@@H](C)O)C(C)C)[C@@H](C)O)N(C)C(=O)CN(C)C(=O)[C@H](Cc1ccccc1)NC(=O)[C@H](CO)NC(=O)[C@H](CO)NC(=O)[C@H](CO)NC(=O)[C@H](CO)NC(=O)[C@H](CCCNC(=N)N)NC(=O)[C@H](Cc1c[nH]cn1)NC(=O)[C@H](CC(C)C)NC(=O)[C@H](Cc1ccccc1)NC(=O)[C@H](CCC(=O)O)NC(=O)[C@H](C)NC(=O)[C@H](CC(C)C)NC(=O)[C@H](CCCNC(=N)N)NC(=O)[C@H](CCC(N)=O)NC(=O)[C@@H](NC(=O)[C@H](C)NC(=O)[C@@H]1CSSC[C@H](NC(=O)[C@H](CCCNC(=N)N)NC(=O)CC[C@H](NC(=O)CCCCCCCCCCCCCCCCCCC(=O)O)C(=O)O)C(=O)N[C@@H](CC(N)=O)C(=O)N[C@@H]([C@@H](C)O)C(=O)N[C@@H](C)C(=O)N[C@@H]([C@@H](C)O)C(=O)N1)[C@@H](C)O [Compound 77, [19CD]-isoGlu-RC()NTATC()ATQRLAEFLHRSSSSF-Gly(Me)-Ile(Me)-LSSTEVGSETP-NH2] ({C20 diacid-γGlu}-RCNTATCATQRLAEFLHRSSSSF[Sar][NMeI]LSSTEVGSETP-NH2; disulfide 2-7)
2 | 0.57 nM | 0.65 nM | – | – | – | – | – | – | – | CC[C@H](C)[C@@H](C(=O)N[C@@H](CC(C)C)C(=O)N[C@@H](CO)C(=O)N[C@@H](CO)C(=O)N[C@H](C(=O)N[C@@H](CCC(=O)O)C(=O)N[C@H](C(=O)NCC(=O)N[C@@H](CO)C(=O)N[C@@H](CCC(=O)O)C(=O)N[C@H](C(=O)N1C[C@H](O)C[C@H]1C(N)=O)[C@@H](C)O)C(C)C)[C@@H](C)O)N(C)C(=O)[C@H](C)NC(=O)CN(C)C(=O)[C@H](Cc1ccccc1)NC(=O)[C@H](CO)NC(=O)[C@H](CO)NC(=O)[C@H](CO)NC(=O)[C@H](CO)NC(=O)[C@H](CCCNC(=N)N)NC(=O)[C@H](Cc1c[nH]cn1)NC(=O)[C@H](CC(C)C)NC(=O)[C@H](Cc1ccccc1)NC(=O)[C@H](CCC(=O)O)NC(=O)[C@H](C)NC(=O)[C@H](CC(C)C)NC(=O)[C@H](CCCNC(=N)N)NC(=O)[C@H](CCC(=O)O)NC(=O)[C@@H](NC(=O)[C@H](C)NC(=O)[C@@H]1CSSC[C@H](NC(=O)[C@H](CCCNC(=N)N)NC(=O)CC[C@H](NC(=O)CCCCCCCCCCCCCCCCCCC(=O)O)C(=O)O)C(=O)N[C@@H](CCC(=O)O)C(=O)N[C@@H]([C@@H](C)O)C(=O)N[C@@H](C)C(=O)N[C@@H]([C@@H](C)O)C(=O)N1)[C@@H](C)O [Compound 170, [19CD]-isoGlu-RC()ETATC()ATERLAEFLHRSSSSF-Gly(Me)-A-Ile(Me)-LSSTEVGSET-Hyp-NH2] ({C20 diacid-γGlu}-RCETATCATERLAEFLHRSSSSF[Sar]A[NMeI]LSSTEVGSET[Hyp]-NH2; disulfide 2-7)
3 | 0.54 nM | 0.84 nM | – | – | – | – | – | – | – | CC[C@H](C)[C@@H](C(=O)N[C@@H](CC(C)C)C(=O)N[C@@H](CO)C(=O)N[C@@H](CO)C(=O)N[C@H](C(=O)N[C@@H](CCC(=O)O)C(=O)N[C@H](C(=O)NCC(=O)N[C@@H](CO)C(=O)N[C@@H](CCC(=O)O)C(=O)N[C@H](C(=O)N1C[C@H](O)C[C@H]1C(N)=O)[C@@H](C)O)C(C)C)[C@@H](C)O)N(C)C(=O)CN(C)C(=O)[C@H](Cc1ccccc1)NC(=O)[C@H](CO)NC(=O)[C@H](CO)NC(=O)[C@H](CO)NC(=O)[C@H](CO)NC(=O)[C@H](CCCNC(=N)N)NC(=O)[C@H](Cc1c[nH]cn1)NC(=O)[C@H](CC(C)C)NC(=O)[C@H](Cc1ccccc1)NC(=O)[C@H](CCC(=O)O)NC(=O)[C@H](C)NC(=O)[C@H](CC(C)C)NC(=O)[C@H](CCCNC(=N)N)NC(=O)[C@H](CCC(=O)O)NC(=O)[C@@H](NC(=O)[C@H](C)NC(=O)[C@@H]1CSSC[C@H](NC(=O)[C@H](CCCNC(=N)N)NC(=O)CC[C@H](NC(=O)CCCCCCCCCCCCCCCCCCC(=O)O)C(=O)O)C(=O)N[C@@H](CCC(=O)O)C(=O)N[C@@H]([C@@H](C)O)C(=O)N[C@@H](C)C(=O)N[C@@H]([C@@H](C)O)C(=O)N1)[C@@H](C)O [Compound 171, [19CD]-isoGlu-RC()ETATC()ATERLAEFLHRSSSSF-Gly(Me)-Ile(Me)-LSSTEVGSET-Hyp-NH2] ({C20 diacid-γGlu}-RCETATCATERLAEFLHRSSSSF[Sar][NMeI]LSSTEVGSET[Hyp]-NH2; disulfide 2-7)
4 | 0.14 nM | 0.062 nM | – | – | – | – | – | – | – | CC[C@H](C)[C@@H](C(=O)N[C@@H](CC(C)C)C(=O)N[C@@H](CO)C(=O)N[C@@H](CO)C(=O)N[C@H](C(=O)N[C@@H](CC(=O)O)C(=O)N[C@H](C(=O)NCC(=O)N[C@@H](CO)C(=O)N[C@@H](CC(=O)O)C(=O)N[C@H](C(=O)N1CCC[C@H]1C(N)=O)[C@@H](C)O)C(C)C)[C@@H](C)O)N(C)C(=O)[C@H](C)NC(=O)CN(C)C(=O)[C@H](Cc1ccccc1)NC(=O)[C@H](CO)NC(=O)[C@H](CO)NC(=O)[C@H](CO)NC(=O)[C@H](CO)NC(=O)[C@H](CCCNC(=N)N)NC(=O)[C@H](Cc1c[nH]cn1)NC(=O)[C@H](CC(C)C)NC(=O)[C@H](Cc1ccccc1)NC(=O)[C@H](CCC(=O)O)NC(=O)[C@H](C)NC(=O)[C@H](CC(C)C)NC(=O)[C@H](CCCNC(=N)N)NC(=O)[C@H](CCC(=O)O)NC(=O)[C@@H](NC(=O)[C@H](C)NC(=O)[C@@H]1CSSC[C@H](NC(=O)[C@H](CCCNC(=N)N)NC(=O)CC[C@H](NC(=O)CCCCCCCCCCCCCCCCCCC(=O)O)C(=O)O)C(=O)N2CCC[C@H]2C(=O)N[C@@H]([C@@H](C)O)C(=O)N[C@@H](C)C(=O)N[C@@H]([C@@H](C)O)C(=O)N1)[C@@H](C)O [Compound 173, [19CD]-isoGlu-RC()PTATC()ATERLAEFLHRSSSSF-Gly(Me)-A-Ile(Me)-LSSTDVGSDTP-NH2] ({C20 diacid-γGlu}-RCPTATCATERLAEFLHRSSSSF[Sar]A[NMeI]LSSTDVGSDTP-NH2; disulfide 2-7)
